Values quoted from earlier work in patent US20080113031A1, “Minicapsule Formulations” (priority 2004, published 2008).

Assays:
[1] = not given; remark: listed apart in the source

COCCOC(=O)C1=C(C)NC(C)=C(C(=O)OC(C)C)C1c1cccc([N+](=O)[O-])c1 (centres unmarked) [Nimodipine]
solubility in water: practically insoluble

B1: PAL from Rhodosporidium toruloides: phenylalanine ammonia-lyase from Rhodosporidium toruloides (protein, UniProt P11544 1-716, looked up)
Phenylalanine/tyrosine …: MAPSLDSISHSFANGVASAKQAVNGASTNLAVAGSHLPTTQVTQVDIVEKMLAAPTDSTLELDGYSLNLGDVVSAARKGRPVRVKDSDEIRSKIDKSVEFLRSQLSMSVYGVTTGFGGSADTRTEDAISLQKALLEHQLCGVLPSSFDSFRLGRGLENSLPLEVVRGAMTIRVNSLTRGHSAVRLVVLEALTNFLNHGITPIVPLRGTISASGDLSPLSYIAAAISGHPDSKVHVVHEGKEKILYAREAMALFNLEPVVLGPKEGLGLVNGTAVSASMATLALHDAHMLSLLSQSLTAMTVEAMVGHAGSFHPFLHDVTRPHPTQIEVAGNIRKLLEGSRFAVHHEEEVKVKDDEGILRQDRYPLRTSPQWLGPLVSDLIHAHAVLTIEAGQSTTDNPLIDVENKTSHHGGNFQAAAVANTMEKTRLGLAQIGKLNFTQLTEMLNAGMNRGLPSCLAAEDPSLSYHCKGLDIAAAAYTSELGHLANPVTTHVQPAEMANQAVNSLALISARRTTESNDVLSLLLATHLYCVLQAIDLRAIEFEFKKQFGPAIVSLIDQHFGSAMTGSNLRDELVEKVNKTLAKRLEQTNSYDLVPRWHDAFSFAAGTVVEVLSSTSLSLAAVNAWKVAAAESAISLTRQVRETFWSAASTSSPALSYLSPRTQILYAFVREELGVKARRGDVFLGKQEVTIGSNVSKIYEAIKSGRINNVLLKMLA
activity at pH 2.2 [1]: no activity
